Experimental data: patent US12611434B2, “Bifidobacterium brevis and its application in preventing or alleviating psoriasis thereof” (Jiangnan University, priority 2020, dated 2026)

Tests used:
Type in all cases: in vivo, BALB/c female mice
[1] = test system: IL-17; test: IL-17 content in skin of psoriasis mice by ELISA kit; conditions: compared with model group; intragastric daily (bacteria 0.2 mL of 1×10^9 CFU/mL); back skin, 1st day of week 4
Source text: (§1) 6 to 8-week-old SPF-class BALB/c female mice were divided into 4 groups: a normal group, a model group, a positive reference group (hereinafter referred to as PRG) and experimental groups, where the experimental groups included a CCFM1078 group intragastrically administrated with the B. breve CCFM1078 and a B. breve 1 group intragastrically administrated with the B. breve 1, with 6 animals in each group. All mice were raised in the Experimental Animal Center of Jiangnan University and fed with ordinary feed, at a constant temperature of 21 to 26° C. and at the humidity of 40 to 70%, with noise of less than or equal to 60 dB, and animal illumination of 15 to 20 LX (all animal experiment procedures were reviewed and approved by the Animal welfare and Ethics Management Committee of Jiangnan University).
(§2) The experimental cycle was a total of 3 weeks, and modeling was performed in week 3. The back of the mice was depilated the day before modeling, in an area of about 2.5 cm×2.5 cm. […] The mice were sacrificed on the 1st day of week 4, a part of the skin of the back depilated region of mice was taken and stored at −80° C., and the content of IL-17 in the skin was detected by an ELISA kit.

[2] = test system: IL-22; test: IL-22 content in skin of psoriasis mice by ELISA kit; conditions: compared with model group; intragastric daily (bacteria 0.2 mL of 1×10^9 CFU/mL; methotrexate 1 mg/kg/day); back skin, 1st day of week 4
Source text: as §1
as §2, with “IL-22” for “IL-17”

[3] = test system: IL-23; test: IL-23 content in skin of psoriasis mice by ELISA kit; conditions: compared with model group; intragastric daily (bacteria 0.2 mL of 1×10^9 CFU/mL; methotrexate 1 mg/kg/day); back skin, 1st day of week 4
Source text: as §1
as §2, with “IL-23” for “IL-17”

Question: Which “decrease of IL-17 content in the skin” value [1] does the source give for `CN(Cc1cnc2nc(N)nc(N)c2n1)c1ccc(C(=O)N[C@@H](CCC(=O)O)C(=O)O)cc1` [methotrexate] here?
Answer: Its value is 24.6%.

Question: And the “decrease of IL-22 content in the skin” value [2]?
Answer: Its value is 41.8%.

Question: And the “decrease of IL-23 content in the skin” value [3]?
Answer: The value was 43.8%.
